Measurements as given in patent publication US12617767B2, “Crystalline forms of somatostatin modulators” (Crinetics Pharmaceuticals, Inc., priority 2019, dated 2026).
Where two headings read alike, the source gives them in different places.

Assays:
Assay type in all cases: physicochemical
[1] = Kinetic solubility studies in FaSSIF and FeSSIF; settings: 37° C.; for solubility thermodynamic at 1 day: thermodynamic from solid, read-out: Concentration
Experimental: The solubility of the dimesylate (Pattern B) and mono-HCl salts of Compound A was determined in FaSSIF (pH 6.5) at 37° C. after a slurry time of 5, 20 and 40 minutes. FaSSIF was warmed to 37° C. and added to a vial of ca. 9 mg of the salt to mark t=0. The mixture was kept stirring at 37° C. and a sample drawn with a syringe at t+5, 20 and 40 minutes. The samples were syringe filtered and the filtrate was diluted 2× to ensure no precipitation while waiting for HPLC analysis. The pH of the solution collected at 40 minutes was measured. The slurry was sampled again the following day and the supernatant from syringe filtration was analyzed directly by HPLC without dilution. The same experiment was run with FeSSIF (pH 5.0).

[2] = Dynamic Vapor Sorption (DVS)
Experimental: Dynamic Vapor Sorption (DVS) was done using a DVS Intrinsic 1. The sample is loaded into a sample pan and suspended from a microbalance. A typical sample mass for DVS measurement is 25 mg. Nitrogen gas bubbled through distilled water provides the desired relative humidity.
A typical measurement comprises the steps: • 1—Equilibrate at 50% RH • 2-50% to 2%. (50%, 40%, 30%, 20%, 10% and 2%) • a. Hold minimum of 5 mins and maximum of 240 minutes at each humidity. The pass criteria is less than 0.002% change • 3-2% to 95% (2%, 10%, 20%, 30%, 40%, 50%, 60%, 70%, 80%, 90%, 95%) • a. Hold minimum of 5 mins and maximum of 240 minutes at each humidity. The pass criteria is less than 0.002% change • 4-95% to 2% (95%, 80%, 70%, 60%, 50%, 40%, 30%, 20%, 10%, 2%) • a. Hold minimum of 5 mins and maximum of 240 minutes at each humidity. The pass criteria is less than 0.002% change • 5-2% to 50% (2%, 10%, 20%, 30%, 40%, 50%) • a. Hold minimum of 5 mins and maximum of 240 minutes at each humidity. The pass criteria is less than 0.002% change Dynamic Vapor Sorption Isotherm Plots of Solid Forms of Compound A⋅2MSA

[3] = Karl-Fischer titration for water determination; settings: dimesylate
Experimental: Karl-Fischer titration for water determination was done using a Mettler Toledo C20S Coulometric KF Titrator equipped with a current generator cell with a diaphragm, and a doubleplatinum-pin electrode. Aquastar™ CombiCoulomat fritless reagent was used in both the anode and cathode compartments. Samples of approximately 0.03-0.10 g were dissolved in the anode compartment and titrated until the solution potential dropped below 100 mV. Hydranal 1 wt. % water standard is used for validation prior to sample analysis.

[4] = Stability of XRPD pattern on drying
Experimental: Short term slurries were carried out at two temperatures in 14 solvents. About 25 mg solid was added to a 2 mL vial followed by 0.70 mL of solvent. If all solids dissolved, more solid was added until a slurry was formed within reason. Slurries were stirred at constant temperature for four days (ambient temperature, 21-23° C.; or high temperature, 50° C.). After stirring for four days, solids were allowed to settle and were then recovered for XRPD analysis. XRPD analysis was performed on the wet cake, and if a new pattern was observed, the sample was dried in a vacuum oven at 50° C. for a minimum of 4 hours, then the dried sample was analyzed by XRPD.
Stability on Drying: A sample of Pattern B was prepared on an XRPD sample holder and analysed by XRPD to create a baseline. The disk was then left in a vacuum oven at 50° C. under static vacuum for 3 days. On the third day, the sample was removed from the oven and the “dry” pattern was recorded immediately.
(§1) Compound A⋅2MSA (Pattern A) was slurried in EtOH overnight at room temperature (ca. 16 hours). […] The bulk was dried in a vacuum oven at 50° C. under dynamic vacuum for 4.5 hours. The dried solids were removed from the oven and a “dry” XRPD analysis was collected.

[5] = Storage at ambient conditions (XRPD); settings: 21-22° C., 10-40% RH, a week
Experimental: Characterization after storage under ambient conditions: Pattern B was left at ambient conditions (21-22° C., 10-40% RH) for a week then characterized by)(RFD, TGA/DSC, and water content measured by Karl-Fischer titration. […] The water content was confirmed by KF titration which yielded a value of 4.20 wt. %.
Compound A⋅2MSA (Pattern A, 0.2622 g) was added to a 20 mL vial with a stir bar. Fifteen volumes (3.93 mL) of EtOH was added and the slurry was stirred overnight (˜20 hours). The slurry was sampled to confirm the correct pattern was generated, then the solids were collected by filtration. The resultant yellow solid was dried in a vacuum oven at 50° C. under dynamic vacuum for 2 hours, then under static vacuum overnight (˜16 hours) to yield 0.2015 g (77% yield). The in-situ sample drawn was dried for 3 hours then the solid was used for characterization by solution ^1H-NMR spectroscopy and simultaneous TGA/DSC. The bulk was dried overnight and used for stand-alone DSC, and thermal treatment.
as §1
Compound A⋅2MSA (Pattern A, 0.2659 g) was added to a 20 mL vial with a stir bar. Twenty-five volumes (6.65 mL) of ACN was added and the slurry was stirred overnight (˜20 hours). The slurry was sampled to confirm the correct pattern was generated, then the solids were collected by filtration. The resultant yellow solid was dried in a vacuum oven at 50° C. under dynamic vacuum for 2 hours, then under static vacuum overnight (˜16 hours) to yield 0.2255 g (85% yield). The sample drawn was dried for 3 hours then the solid was used for characterization by solution ^1H-NMR spectroscopy and simultaneous TGA/DSC. The bulk was dried overnight and used for stand-alone DSC.

With `CS(=O)(=O)O.CS(=O)(=O)O.N#Cc1cccc(-c2ccc3ncc(-c4cc(F)cc(F)c4)c(N4CCC(N)CC4)c3c2)c1O` [Pattern B, 3-(4-(4-aminopiperidin-1-yl)-3-(3,5-difluorophenyl)quinolin-6-yl)-2-hydroxybenzonitrile dimesylate] the “pH of the solution collected at 40 minutes” value ([1]; FaSSIF (pH 6.5)) was 6.22, the Concentration ([1]; FaSSIF (pH 6.5), 5 min) was 13 µg/mL and the Concentration ([1]; FaSSIF (pH 6.5), 20 min) was 15 µg/mL. For the same compound, the Concentration ([1]; FaSSIF (pH 6.5), 40 min) was 13 µg/mL, the “pH of the solution collected at 40 minutes” value ([1]; FeSSIF (pH 5.0)) was 4.94 and the Concentration ([1]; FeSSIF (pH 5.0), 5 min) was 559 µg/mL. For the same compound, the Concentration ([1]; FeSSIF (pH 5.0), 20 min) was 565 µg/mL, the Concentration ([1]; FeSSIF (pH 5.0), 40 min) was 559 µg/mL and the solubility thermodynamic at 1 day ([1]; FaSSIF (pH 6.5)) was 8 µg/mL. The solubility thermodynamic at 1 day ([1]; FeSSIF (pH 5.0)) was 502 µg/mL, the “XRPD form after the DVS experiment” value ([2]; 2-95% RH, dimesylate) was “no change in form” and the “reversible water uptake (DVS)” value ([2]; between 2% and 95% Relative Humidity (RH), dimesylate) was 3.2 % w/w. The “total mass difference (DVS)” value ([2]; over the 2-95% RH range) was 3.2 wt. %, the “mass change (DVS)” value ([2]; range of 10-80% RH) was 1.3 wt. % and the “Water Content” value [3] was 4.2% w/w. For the same compound, the “XRPD pattern upon drying” value ([4]; solids from short term slurries, vacuum oven at 50° C., minimum of 4 hours, dimesylate) was “stable upon drying”, the “XRPD pattern after drying” value ([4]; vacuum oven at 50° C. under static vacuum for 3 days) was “matched Pattern B” and the “XRPD pattern after storage at ambient conditions” value [5] was “identical to Pattern B”.
